The record followed here is patent US8536215B2, “Pyrazole microbiocides” (Syngenta Crop Protection LLC, priority 2010, dated 2013).

Structures are written as SMILES.

As usually defined, the inhibition is the percentage by which the read-out fell short of the control. One may read the melting point as the temperature of the solid-liquid transition.

Series [1] deals with Mycosphaerella arachidis (Cercospora arachidicola [Anamorph]). As to the kind of experiment: Action against Mycosphaerella arachidis (early leaf spot of groundnut) - fungal growth assay. Type of series: cell-based. Particulars: 0.002% active ingredient, PDB broth, 24° C., photometric after 6-7 days. As for the experimental part: Conidia of the fungus from cryogenic storage were directly mixed into nutrient broth (PDB potato dextrose broth). After placing a (DMSO) solution of the test compounds (0.002% active ingredient) into a microtiter plate (96-well format) the nutrient broth containing the fungal spores was added. The test plates were incubated at 24° C. and the inhibition of growth was measured photometrically after 6-7 days. The activity of a compound was expressed as fungal growth inhibition (0=no growth inhibition, ratings of 80% to 99% mean good to very good inhibition, 100%=complete inhibition).

Series [2] deals with Puccinia recondita. As to the kind of experiment: Protective action against Puccinia recondita (brown rust) on wheat leaf segments. In kind it is in vivo. Particulars: foliar, 192 h, 0.02% active ingredient sprayed on wheat leaf segments, assessed 8 days after inoculation, read-out: preventive fungicidal activity (inhibition). As for the experimental part:
Wheat leaf segments were placed on agar in multiwell plates (24-well format) and sprayed with test solutions (0.02% active ingredient). After drying, the leaf disks were inoculated with a spore suspension of the fungus. After appropriate incubation the activity of a compound was assessed 8 days after inoculation as preventive fungicidal activity.

A further series deals with Septoria tritici. As to the kind of experiment: Action against Septoria tritici - fungal growth assay. To be noted: Zymoseptoria tritici; 0.002% active ingredient, PDB broth, 24° C., photometric after 72 hrs. Type of series: cell-based. Here is the method:
Conidia of the fungus from cryogenic storage were directly mixed into nutrient broth (PDB potato dextrose broth). After placing a (DMSO) solution of the test compounds (0.002% active ingredient) into a microtiter plate (96-well format) the nutrient broth containing the fungal spores was added. The test plates were incubated at 24° C. and the inhibition of growth was determined photometrically after 72 hrs. The activity of a compound was expressed as fungal growth inhibition (0=no growth inhibition, ratings of 80% to 99% mean good to very good inhibition, 100%=complete inhibition).

A further series deals with Botrytis cinerea. As to the kind of experiment: Action against Botrytis cinerea - fungal growth assay. Type of series: cell-based. Particulars: 0.002% active ingredient, PDB broth, 24° C., photometric after 3-4 days. As for the experimental part:
(§1) Conidia of the fungus from cryogenic storage was directly mixed into nutrient broth (PDB potato dextrose broth). After placing a (DMSO) solution of the test compounds (0.002% active ingredient) into a microtiter plate (96-well format) the nutrient broth containing the fungal spores was added. The test plates were incubated at 24° C. and the inhibition of growth was measured photometrically after 3-4 days. The activity of a compound was expressed as fungal growth inhibition (0=no growth inhibition, ratings of 80% to 99% mean good to very good inhibition, 100%=complete inhibition).

The test system of series [3] is Puccinia recondita. As to the kind of experiment: Curative action against Puccinia recondita (brown rust) on wheat leaf segments. Type of series: in vivo. Particulars: foliar, 0.02% active ingredient sprayed one day after inoculation of wheat leaf segments, assessed 8 days after inoculation, read-out: curative fungicidal activity (inhibition). Here is the method:
Wheat leaf segments were placed on agar in multiwell plates (24-well format) and inoculated with a spore suspension of the fungus. One day after inoculation the leaf segments were sprayed with test solutions (0.02% active ingredient). After appropriate incubation the activity of a compound was assessed 8 days after inoculation as curative fungicidal activity.

Series [4] concerns Monographella nivalis (Anamorph: Fusarium nivale, Microdochium nivale). As to the kind of experiment: Action against Monographella nivalis (snow mould) - fungal growth assay. Type of series: cell-based. To be noted: 0.002% active ingredient, PDB broth, 24° C., photometric after 72 hrs. Here is the method:
Conidia of the fungus from cryogenic storage were directly mixed into nutrient broth (PDB potato dextrose broth). After placing a DMSO-solution of the test compounds (0.002% active ingredient) into a microtiter plate (96-well format) the nutrient broth containing the fungal spores was added. The test plates were incubated at 24° C. and the inhibition of growth was measured photometrically after 72 hrs (0=no growth inhibition, ratings of 80% to 99% mean good to very good inhibition, 100%=complete inhibition).

The subject of series [5] is Erysiphe graminis f. sp. tritici. As to the kind of experiment: Action against Erysiphe graminis f. sp. tritici (wheat powdery mildew), wheat leaf segments, preventive. Type of series: in vivo. To be noted: Blumeria graminis, foliar, 168 h; 0.02% active ingredient sprayed on wheat leaf segments, assessed 7 days after inoculation; read-out: preventive fungicidal activity (inhibition). Here is the method:
Wheat leaf segments were placed on agar in multiwell plates (24-well format) and sprayed with test solutions (0.02% active ingredient). After drying, the leaf disks were inoculated with a spore suspension of the fungus. After appropriate incubation the activity of a compound was assessed 7 days after inoculation as preventive fungicidal activity.

Another series relates to Rhizoctonia Solani. As to the kind of experiment: Action against Rhizoctonia solani - fungal growth assay. To be noted: 0.002% active ingredient, PDB broth, 24° C., photometric after 3-4 days. In kind it is cell-based. As for the experimental part:
as §1, with “Mycelial fragments of a newly grown liquid culture” for “Conidia”, “were” for “from cryogenic storage was”

The subject of the next series is Pyrenophora teres. As to the kind of experiment: Action against Pyrenophora teres (net blotch) on barley leaf segments, preventive. To be noted: foliar, 96 h, 0.02% active ingredient sprayed on barley leaf segments, assessed 4 days after inoculation, read-out: preventive fungicidal activity (inhibition). Type of series: in vivo. As for the experimental part: Barley leaf segments were placed on agar in multiwell plates (24-well format) and sprayed with test solutions (0.02% active ingredient). After drying, the leaf disks were inoculated with a spore suspension of the fungus. After appropriate incubation the activity of a compound was assessed 4 days after inoculation as preventive fungicidal activity.

In the case of `CON(C(=O)c1cn(C)nc1C(F)F)C(C)C1CCC(C)=CC1(C)C` (stereo not drawn) [Compound 1.081, 3-difluoromethyl-1-methyl-1H-pyrazole-4-carboxylic acid methoxy-[1-(2,2,4-trimethyl-cyclohex-3-enyl)-ethyl]-amide], the melting point was in the range of 95 to 105 °C. This compound also displayed an inhibition at 0.002 % strength in series [1] not below 80%. Besides, the inhibition at 0.02 % strength in the series on Puccinia recondita [2] is not below 80%. In the series on Septoria tritici, this compound had an inhibition at 0.002 % strength not below 80%. In addition, the inhibition at 0.002 % strength in the series on Botrytis cinerea was not below 80%. For the same compound, in the series on Puccinia recondita [3], the inhibition at 0.02 % strength is not below 80%. The compound also came in with an inhibition at 0.002 % strength in series [4] not below 80%. The inhibition at 0.02 % strength in [5] was not below 80%. The compound further gave an inhibition at 0.002 % strength in the series on Rhizoctonia Solani not below 80%. In the series on Pyrenophora teres, the inhibition at 0.02 % strength was not below 80%.

Consider `CON(C(=O)c1cn(C)nc1C(F)F)C(C)C1CC=C(C)CC1` (stereo not drawn) [Compound 1.049], for which the inhibition at 0.002 % strength (in [1]; in the series with Septoria tritici; in the series on Botrytis cinerea; in series [4]; in the series on Rhizoctonia Solani) was not below 80% in each case. Moreover, the inhibition at 0.02 % strength (in series [5]; in the series on Pyrenophora teres) was not below 80% in each case.

For `CON(C(=O)c1cn(C)nc1C(F)F)C(C)C1CCC(C)=CC1(C)C` (single isomer, unassigned) [Compound 1.081 Diastereomer A, 3-difluoromethyl-1-methyl-1H-pyrazole-4-carboxylic acid methoxy-[1-(2,2,4-trimethyl-cyclohex-3-enyl)-ethyl]-amide], the inhibition at 0.002 % strength in the series on Botrytis cinerea was not below 80%.
